Results as given in patent US20090221505A1, “COMPOSITIONS AND METHODS RELATED TO SYNCHRONOUS SELECTION OF HOMING PEPTIDES FOR MULTIPLE TISSUES BY IN VIVO PHAGE DISPLAY” (priority 2004, published 2009).
“Also recorded” adds a separate entry of the source. Where no end group is shown, it is not given here.

Columns and labels:
[1] = system: COS-1 cells transfected with PRLR; test: Phage binding to COS-1 cells transfected with PRLR (BRASIL); type: cell-based; settings: for Isolation by biopanning on cell-surface expressed PRLR: pancreas-homing phage pool (rounds 2 and 3), single round; for Isolation by biopanning on cell-surface expressed PRLR / Binding of phage to PRLR-transfected COS-1 cells (in words): BRASIL; for Binding of phage to PRLR-transfected COS-1 cells (in words): FIG. 5A-5B
Protocol: (§1) Phage-peptide binding to PRLR To identify peptides binding to PRLR, phage clones isolated from the pancreas in rounds 2 and 3 of the screening were individually amplified and pooled. For panning on immobilized PRLR, 10^9 TU of the mixed phage clones were incubated overnight at 4° C. with […] of purified recombinant rabbit PRLR (Protein Laboratories Rehovot, Israel), or BSA control, immobilized on plastic. Unbound phage were extensively washed off with PBS, and then the bound phage were recovered by infecting host K91 E. coli directly on the plate. For panning on cell surface-expressed PRLR, COS-1 cells (ATCC) were transiently transfected with pECE-PRLR as described (Wang et al, 1997) and subjected to biopanning with the amplified pancreas-isolated phage using the BRASIL protocol (Giordano et al, 2001). In each biopanning, bound phage were selected for tetracycline resistance, quantified by infecting host K91 E. coli and sequenced. […] Phage displaying forward (CRVASVLPC) (SEQ ID NO 30), reverse CPLVSAVRC(SEQ ID NO 34), and the alanine point mutants were titered in-parallel with insertless fd-tet phage and tested for binding to COS-1 cells transfected with PRLR by using the BRASIL method (Giordano et al, 2001). COS-1 cells not transfected with PRLR served as a negative control.

[2] = target: T1, purified recombinant rabbit PRLR (Oryctolagus cuniculus, UniProt P14787); test: Panning of pancreas-homing phage on immobilized PRLR (BSA control); type: binding; settings: pancreas-homing phage pool (rounds 2 and 3), single round
T1 construct: purchased Protein Laboratories Rehovot, Israel
T1 sequence (P14787 25-234 limits assumed): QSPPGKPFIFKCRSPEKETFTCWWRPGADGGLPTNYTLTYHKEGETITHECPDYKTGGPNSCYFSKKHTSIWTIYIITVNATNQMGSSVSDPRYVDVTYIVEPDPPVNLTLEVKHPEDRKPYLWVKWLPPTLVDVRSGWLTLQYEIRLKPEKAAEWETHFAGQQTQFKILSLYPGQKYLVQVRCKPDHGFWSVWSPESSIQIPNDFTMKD
Protocol: as §1

[3] = system: COS-1 cells transfected with PRLR; test: Immunofluorescence of phage binding and internalization into COS-1 cells transfected with PRLR; type: cell-based; settings: 10^9 TU phage
Protocol: (§2) Immunolocalization Immunofluorescent detection of PRLR expression in COS-1 cells was performed by using anti-PRLR antibody MAI-610 (Affinity Bioreagents) diluted to 20 μg/ml and a secondary FITC-conjugated goat anti-mouse antibody F-0257 (Sigma) at 1 100 dilution. For validating phage binding and internalization into COS-1 cells transfected with PRLR, 10^9 TU of phage displaying PRLR-binding or mutant peptides were subjected to cell binding and internalization as described (Zurita et al, 2004). Immunodetection of cell-associated phage was performed with anti-fd antibody B-7786 (Sigma) at 1 500 dilution and a secondary Cy3-conjugated donkey anti-rabbit antibody 711-165-152 (Jackson) at 3 μg/ml. For phage-peptide immunolocalization in situ, 10^10 TU of iv-injected phage were let circulate for 5 min. Immunohistochemistry on formalin-fixed, paraffin-embedded mouse tissue sections was performed as described (Paqualini et al, 2001, Arap et al, 2002) by using anti-fd antibody B-7786 at 1 1,000 dilution and the LSAB+ peroxidase kit (DAKO)

[4] = system: skeletal muscle; test: Anti-phage immunohistochemistry after iv phage injection, skeletal muscle; type: in vivo, mouse
Protocol: as §2

[5] = system: Pancreas; test: Anti-phage immunohistochemistry after iv phage injection, pancreas; type: in vivo, mouse
Protocol: as §2

[6] = target: PRLR (prolactin receptor) expressed on the surface of COS-1 cells transfected with pECE-PRLR; test: phage binding to PRLR-transfected COS-1 cells, BRASIL
PRLR (prolactin receptor) expressed on the surface of COS-1 cells transfected with pECE-PRLR, sequence (P05710 20-610): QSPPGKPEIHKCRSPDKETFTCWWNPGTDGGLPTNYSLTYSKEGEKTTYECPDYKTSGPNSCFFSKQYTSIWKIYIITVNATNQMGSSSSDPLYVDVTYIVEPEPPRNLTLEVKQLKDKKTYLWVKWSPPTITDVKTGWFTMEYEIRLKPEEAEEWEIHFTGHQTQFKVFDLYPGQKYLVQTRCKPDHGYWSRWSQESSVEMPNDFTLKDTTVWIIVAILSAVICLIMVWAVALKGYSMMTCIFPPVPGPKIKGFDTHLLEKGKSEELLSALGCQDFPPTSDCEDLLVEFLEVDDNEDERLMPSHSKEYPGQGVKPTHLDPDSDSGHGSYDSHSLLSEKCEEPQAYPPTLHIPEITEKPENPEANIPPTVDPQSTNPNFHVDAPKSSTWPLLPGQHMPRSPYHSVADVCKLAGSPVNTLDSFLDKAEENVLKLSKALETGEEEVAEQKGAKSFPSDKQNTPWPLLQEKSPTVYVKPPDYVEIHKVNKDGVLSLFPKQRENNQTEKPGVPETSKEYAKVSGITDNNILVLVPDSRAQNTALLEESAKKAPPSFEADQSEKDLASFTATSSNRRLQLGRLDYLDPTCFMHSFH

[7] = target: PRLR (prolactin receptor) expressed on the surface of COS-1 cells transfected with pECE-PRLR; test: phage binding to prlR-transfected COS-1 cells

With SGATGRA (not fully specified) the “Isolation by biopanning on cell-surface expressed PRLR” value (from here on “Isolation … expressed PRLR”) [1] was “isolated by biopanning on both in vitro immobilized and cell-surface expressed PRLR” and the “Isolation by biopanning on in vitro immobilized PRLR” value [2] was “isolated by biopanning on both in vitro immobilized and cell-surface expressed PRLR”.

CRVASVLPC [tested as phage clone] was tested, and the “Phage binding, internalization and co-localization with PRLR-expressing cells” value [3] was “co-localized; also recorded: bound and internalized specifically by cells expressing PRLR”, the “Phage localization in skeletal muscle” value [4] was “but not to skeletal muscle” and the “Phage localization in pancreas” value [5] was “localized to pancreatic blood vessels and the islets of Langerhans; also recorded: to pancreatic blood vessels and the pancreatic islet cells”. For the same molecule, the “Binding of phage to PRLR-transfected COS-1 cells (in words)” value [1] was “Specific binding”, the “Binding of phage to COS-1 cells transfected with prlR relative to background binding by controls” value ([1]; controls: muscle-homing phage or insertless phage) was “five” and the “Binding of phage to COS-1 cells transfected with PRLR relative to nonspecific binding to non-transfected COS-1 cells” value ([1]; negative control: non-transfected COS-1 cells, FIG. 5A) was 9 fold.

With LPTLSLN (not fully specified) the “Isolation … expressed PRLR” value [1] was “isolated by biopanning on both in vitro immobilized and cell-surface expressed PRLR” and the “Isolation by biopanning on in vitro immobilized PRLR” value [2] was “isolated by biopanning on both in vitro immobilized and cell-surface expressed PRLR”.

With SGPTGRA (not fully specified) the “Isolation … expressed PRLR” value [1] was “isolated by biopanning on both in vitro immobilized and cell-surface expressed PRLR” and the “Isolation by biopanning on in vitro immobilized PRLR” value [2] was “isolated by biopanning on both in vitro immobilized and cell-surface expressed PRLR”.

For VFSDYKR (not fully specified), the “Isolation … expressed PRLR” value [1] was “isolated by biopanning on both in vitro immobilized and cell-surface expressed PRLR” and the “Isolation by biopanning on in vitro immobilized PRLR” value [2] was “isolated by biopanning on both in vitro immobilized and cell-surface expressed PRLR”.

In the case of QVHSSAY (not fully specified), the “Isolation … expressed PRLR” value [1] is reported as “isolated by biopanning on both in vitro immobilized and cell-surface expressed PRLR” and the “Isolation by biopanning on in vitro immobilized PRLR” value [2] is reported as “isolated by biopanning on both in vitro immobilized and cell-surface expressed PRLR”.

With CPLVSAVRC the “Phage binding, internalization and co-localization with PRLR-expressing cells” value [3] was “bound and internalized specifically by cells expressing PRLR” and the “Binding of phage to PRLR-transfected COS-1 cells (in words)” value [1] was “did not significantly decrease its binding to PRLR”.

With “CYAIGSFDC (phage-displayed) [control muscle-homing phage clone displaying …]” the “Phage localization in skeletal muscle” value [4] was “found predominantly in the vasculature of skeletal muscle; also recorded: found predominantly in the vasculature of the skeletal muscle” and the “Phage localization in pancreas” value [5] was “but not in the pancreas”.

B1: …-phage (phage displaying the … motif, SEQ ID NO 30) (peptide, part only; not given: phage coat protein, part only)
peptide, part: CRVASVLPC
modifications: not fully specified (bridges); cysteine pairing not given here; also: displayed on filamentous phage (fUSE5)
For B1, the fold binding over non-transfected COS-1 cells [6] was 9 fold and the fold binding over control phage (muscle-homing or insertless) [7] was 5 fold.
